One compound from paper PMC10167667, “Structural and functional characterization of a multi-domain GH92 α-1,2-mannosidase from Neobacillus novalis” (Acta Crystallographica. Section D, Structural Biology, 2023) can be followed below.

This experiment deals with T1, NnGH92 (Neobacillus novalis, UniProt A0A7R9KAR8).
T1 construct: full-length five-domain enzyme without native signal peptide (Ser34-Asp1411); Alcalase signal peptide then N-terminal HHHHHHPR tag kept; secreted from Bacillus subtilis
Nature of the experiment: X-ray crystal structure, […] Å. The experiment is classed as binding. Conditions: co-crystallised with 5 mM mannoimidazole and 8 mM CaCl2, pH 6.6; catalytic active site (-1 subsite, Ca2+); second site in N-terminal CBM32 (chain A).

T1 sequence (A0A7R9KAR8 entry or part of it): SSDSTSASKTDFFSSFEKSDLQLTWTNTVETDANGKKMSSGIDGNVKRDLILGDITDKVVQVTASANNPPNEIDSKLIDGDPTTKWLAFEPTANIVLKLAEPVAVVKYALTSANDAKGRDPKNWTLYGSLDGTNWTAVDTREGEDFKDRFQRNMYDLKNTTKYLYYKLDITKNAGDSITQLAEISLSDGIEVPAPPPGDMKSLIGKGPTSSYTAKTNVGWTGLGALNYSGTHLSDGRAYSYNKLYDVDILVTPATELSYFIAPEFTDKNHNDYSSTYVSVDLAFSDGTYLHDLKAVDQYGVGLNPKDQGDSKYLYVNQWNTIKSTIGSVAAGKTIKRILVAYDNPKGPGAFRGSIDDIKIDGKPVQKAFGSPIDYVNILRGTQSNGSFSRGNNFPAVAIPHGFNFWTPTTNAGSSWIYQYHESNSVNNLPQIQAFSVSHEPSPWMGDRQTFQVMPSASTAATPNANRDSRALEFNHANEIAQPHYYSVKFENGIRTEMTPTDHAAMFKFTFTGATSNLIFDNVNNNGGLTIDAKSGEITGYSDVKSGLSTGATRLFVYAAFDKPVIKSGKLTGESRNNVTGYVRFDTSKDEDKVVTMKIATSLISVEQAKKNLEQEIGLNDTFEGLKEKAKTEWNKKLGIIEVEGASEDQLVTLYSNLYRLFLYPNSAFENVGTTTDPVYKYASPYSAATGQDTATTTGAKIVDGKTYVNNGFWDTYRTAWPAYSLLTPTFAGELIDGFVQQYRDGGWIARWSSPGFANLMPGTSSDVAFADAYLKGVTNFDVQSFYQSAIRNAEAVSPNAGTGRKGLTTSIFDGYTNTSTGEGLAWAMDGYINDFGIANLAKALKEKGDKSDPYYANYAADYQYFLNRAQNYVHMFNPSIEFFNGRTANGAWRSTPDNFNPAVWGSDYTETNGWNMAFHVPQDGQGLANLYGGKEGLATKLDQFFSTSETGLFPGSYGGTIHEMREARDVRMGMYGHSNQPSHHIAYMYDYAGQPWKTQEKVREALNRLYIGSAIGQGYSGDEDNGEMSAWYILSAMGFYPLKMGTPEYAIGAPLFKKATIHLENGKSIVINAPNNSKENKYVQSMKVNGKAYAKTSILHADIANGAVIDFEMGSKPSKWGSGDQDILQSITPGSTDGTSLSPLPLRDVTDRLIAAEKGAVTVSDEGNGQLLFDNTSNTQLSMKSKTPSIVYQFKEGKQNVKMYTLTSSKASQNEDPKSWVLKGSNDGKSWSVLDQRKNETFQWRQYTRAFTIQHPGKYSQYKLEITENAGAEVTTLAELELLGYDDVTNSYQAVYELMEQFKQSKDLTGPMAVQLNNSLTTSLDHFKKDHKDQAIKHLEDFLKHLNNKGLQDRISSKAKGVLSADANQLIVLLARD

`OC[C@@H]1[C@@H](O)[C@H](O)[C@H](O)c2nccn21` [mannoimidazole]: the “X-ray crystal structure, 2.3 Å” value is recorded as “solved in complex with the mannosidase inhibitor mannoimidazole (ManI; PDB entry 7nsn”.
